Source: publication PMC8605905 (Oxidative Medicine and Cellular Longevity, 2021)
Entries after “also recorded” stand apart in the source; their conditions may differ.

How the values were obtained:
[1] = test system: Aβ-GFP SH-SY5Y cells; test: High content analysis of Aβ-GFP fluorescence; assay type: cell-based, Human
Experimental: Human neuroblastoma SH-SY5Y-derived Aβ-GFP [23] and ∆K280 tauRD-DsRed cells were kept in DMEM/nutrient mixture F12 (DMEM/F12) containing 10% FBS, 5 μg/ml blasticidin, and 100 μg/ml hygromycin (InvivoGen, San Diego, CA, USA). Doxycycline (Sigma-Aldrich) was applied to induce the expression of Aβ-GFP (5 μg/ml doxycycline) or ∆K280 tauRD-DsRed (2 μg/ml doxycycline).
On day 1, Aβ-GFP or ∆K280 tauRD-DsRed SH-SY5Y cells were seeded into 96-well plates (2.5 × 10^4/well) and treated with retinoic acid (10 μM; Sigma-Aldrich) to prompt neuronal differentiation. […] Image Acquisition and Analysis Software (MetaXpress) (Molecular Devices, Sunnyvale, CA, USA) was used to analyse the images. CellROX Orange (5 μM; Molecular Probes, Eugene, OR, USA) (for Aβ-GFP cells) or dichloro-dihydro-fluorescein diacetate (DCFH-DA, 10 μM; Invitrogen) (for ∆K280 tauRD-DsRed cells) was added to the cells and incubated at 37°C for 30 min.

[2] = target: T1, Aβ42 peptide (Homo sapiens, UniProt P05067); test: Thioflavin T assay of Aβ aggregation; assay type: biochemical; conditions: Aβ42 5 μM, compound 5–20 μM, 37°C 48 h; read-out: Aβ aggregation inhibition EC50 (Thioflavin T)
T1 construct: containing Aβ42 peptide (5 μM); purchased AnaSpec; host or cells: synthetic
Experimental: In brief, the tested compound (5–20 μM) was added to a buffer solution (150 mM NaCl, 20 mM Tris-HCl (pH 8.0)) containing Aβ42 peptide (5 μM) and incubated at 37°C for 48 h. Thioflavin T (10 μM) (Sigma-Aldrich) then was added, and the mixture was incubated for 5 min at room temperature. Subsequently, the fluorescence intensity was quantified at 420/485 nm of excitation/emission wavelengths using a FLx800 microplate reader (Bio-Tek, Winooski, VT, USA). EC50 was computed as described.

[3] = target: T2, ΔK280 tauRD protein (Homo sapiens, UniProt P10636, DEL597-597); test: Thioflavin T assay of ΔK280 tauRD aggregation; assay type: biochemical; conditions: ΔK280 tauRD 20 μM, compound 1–10 μM, 37°C 48 h; read-out: ΔK280 tauRD aggregation inhibition EC50 (Thioflavin T)
T2 construct: E. coli-derived ΔK280 tauRD protein; made in house; host or cells: E. coli
Experimental: The potential of Congo red and coumarin-chalcone derivatives in inhibiting tau misfolding was assessed using the E. coli-derived ΔK280 tauRD protein [21]. In brief, ΔK280 tauRD protein (20 μM) was incubated with the tested compound (1−10 μM) in buffer (150 mM NaCl, 20 mM Tris-HCl (pH 8.0)) at 37°C for 48 h to form aggregates. Thioflavin T (5 μM) was then added, and the mixture was incubated at room temperature for 25 min. The fluorescence intensity of the samples was measured, and the EC50 was computed as described.

[4] = physchem; assay type: physicochemical; conditions: aqueous buffer
Experimental: The coumarin-chalcone derivatives (E)-4-hydroxy-3-(3-(p-tolyl)acryloyl)-2H-chromen-2-one (LM-016), (E)-3-(3-(4-(dimethylamino)phenyl)acryloyl)-4-hydroxy-2H-chromen-2-one (LM-021), and (E)-3-(3-(furan-2-yl)acryloyl)-4-hydroxy-2H-chromen-2-one (LM-022) were synthesized in our laboratory as previously described and examined by using NMR spectroscopy. The LM-016, LM-021, and LM-022 stayed soluble in cell culture medium at concentrations up to 100 μM.

[5] = test system: Aβ-GFP SH-SY5Y cells; test: High content analysis of neurite outgrowth in Aβ-GFP cells; assay type: cell-based, Human; conditions: 5 μM
Experimental: On day 1, Aβ-GFP or ∆K280 tauRD-DsRed SH-SY5Y cells were plated into 24-well plates (6 × 10^4/well) followed by addition of retinoic acid. On day 2, cells were treated with coumarin-chalcone derivatives (5 or 10 μM) and with doxycycline (5 or 2 μg/ml) to induce the expression of Aβ-GFP or ∆K280 tauRD-DsRed. On day 8, 4% paraformaldehyde, 0.1% Triton X-100, and 3% BSA were used to fix, permeabilize, and block cells, respectively. Subsequently, the cells were stained with TUBB3 (neuronal class III β-tubulin) primary antibody (1 : 1000; Covance, Princeton, NJ, USA) at 4°C overnight. Goat anti-rabbit Alexa Fluor 555 secondary antibody (1 : 1000; Thermo Fisher Scientific) was then added, followed by a 3 h incubation at room temperature. Following staining nuclei with 4′,-6-diamidino-2-phenylindole (DAPI) (0.1 μg/ml; Sigma-Aldrich), the neurons were imaged by using the HCA system and analysed by using the Neurite Outgrowth Application Module (MetaXpress; Molecular Devices).
To monitor the cAMP-mediated signal transduction pathway, CRE-GFP 293 cells in 6-well plates (1 × 10^6/well) were pretreated with kinase inhibitor H-89 (LC Laboratories, Woburn, MA, USA), KN-62 (Cayman Chemical, Ann Arbor, MI, USA), U0126 (LC Laboratories), or wortmannin (LC Laboratories) (10 μM) for 4 h before forskolin or LM-021 (10 μM) addition for 5 h. GFP fluorescence/protein and total/phosphorylated PKA, CaMKII, ERK, PI3K, and CREB levels were examined. In addition, Aβ-GFP or ∆K280 tauRD-DsRed SH-SY5Y cells were treated with retinoic acid (10 μM) on day 1, followed by the addition of LM-021 (5 or 10 μM) and doxycycline (5 or 2 μg/ml) on day 2, as described. Kinase inhibitors (10 μM) were added on day 6. On day 8, the cells were collected for protein expression analysis of BDNF, BCL2 (BCL2 apoptosis regulator), and BAX (BCL2 associated X, apoptosis regulator), and total/phosphorylated PKA, CaMKII, ERK, PI3K, and CREB. Also, cells were stained with DAPI and assessed for neurite outgrowth as described above.

T1 sequence (P05067 672-713 limits assumed): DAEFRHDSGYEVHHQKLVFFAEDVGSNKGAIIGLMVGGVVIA
T2 sequence (P10636 with tags, fused parts or gaps DEL597-597): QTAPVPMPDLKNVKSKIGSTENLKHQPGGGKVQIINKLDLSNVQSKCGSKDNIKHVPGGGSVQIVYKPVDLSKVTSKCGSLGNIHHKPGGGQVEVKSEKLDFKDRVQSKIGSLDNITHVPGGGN

With `CN(C)c1ccc(/C=C/C(=O)c2c(O)c3ccccc3oc2=O)cc1` [LM-021, (E)-3-(3-(4-(dimethylamino)phenyl)acryloyl)-4-hydroxy-2H-chromen-2-one] the “Toxicity in SH-SY5Y cells” value ([1]; Aβ-GFP and ΔK280 tauRD-DsRed SH-SY5Y cells (Figures 3 and 4)) was “low toxicity”, the EC50 ([1]; Homo sapiens, Aβ-GFP SH-SY5Y cells, tested 1.2–5 μM, read-out: EC50 in Aβ aggregation inhibition (GFP fluorescence)) was 5.1 µM and the “Concentration significantly augmenting green fluorescence intensity (Aβ-GFP)” value ([1]; tested 1.2–5 μM, day 8) was 1.2 to 5 µM. It also gave an EC50 [2] of 14 µM, an EC50 [3] of 10 µM and a solubility [4] of at least 100 µM. For the same molecule, the “Neurite length, processes, and branches” value [5] was “successfully ameliorated; also recorded: salvaged”.
